In publication PMC3313677 (Biochemistry, 2012):
Like-named read-outs stand apart in the source and are kept apart here.

Legend:
[1] = target: F52W MR; conditions: read-out: Ki (competitive inhibition constant); cited from earlier work
[2] = target: N197A MR; conditions: read-out: Ki (competitive inhibition constant); cited from earlier work
[3] = target: A25V MR (Pseudomonas putida, UniProt P11444, A25V); assay: CD-based competitive inhibition of MR variant A25V; format: biochemical
[4] = target: V26A MR (Pseudomonas putida, UniProt P11444, V26A); assay: CD-based competitive inhibition of MR variant V26A; format: biochemical
[5] = target: Mandelate racemase (MR, EC 5.1.2.2); conditions: cited from earlier work
[6] = target: Y54L MR (Pseudomonas putida, UniProt P11444, Y54L); assay: CD-based competitive inhibition of MR variant Y54L; format: biochemical
[7] = target: E317Q MR; conditions: read-out: Ki (competitive inhibition constant); cited from earlier work
[8] = target: V26F MR (Pseudomonas putida, UniProt P11444, V26F); assay: CD-based competitive inhibition of MR variant V26F; format: biochemical
[9] = target: V26A/V29L MR (Pseudomonas putida, UniProt P11444, V26A/V29L); assay: CD-based competitive inhibition of MR variant V26A/V29L; format: biochemical
[10] = target: T24S MR (Pseudomonas putida, UniProt P11444, T24S); assay: CD-based competitive inhibition of MR variant T24S; format: biochemical
[11] = target: F52W/Y54W MR; conditions: read-out: Ki (competitive inhibition constant); cited from earlier work
[12] = target: V22F MR (Pseudomonas putida, UniProt P11444, V22F); assay: CD-based competitive inhibition of MR variant V22F; format: biochemical
[13] = target: V29D MR; conditions: read-out: Ki (competitive inhibition constant); cited from earlier work
[14] = target: V29A MR (Pseudomonas putida, UniProt P11444, V29A); assay: CD-based competitive inhibition of MR variant V29A; format: biochemical
[15] = target: V29F MR (Pseudomonas putida, UniProt P11444, V29F); assay: CD-based competitive inhibition of MR variant V29F; format: biochemical
[16] = target: Y54F MR (Pseudomonas putida, UniProt P11444, Y54F); assay: CD-based competitive inhibition of MR variant Y54F; format: biochemical
[17] = target: V22I MR (Pseudomonas putida, UniProt P11444, V22I); assay: CD-based competitive inhibition of MR variant V22I; format: biochemical
[18] = target: V26L MR (Pseudomonas putida, UniProt P11444, V26L); assay: CD-based competitive inhibition of MR variant V26L; format: biochemical
[19] = target: V22A MR (Pseudomonas putida, UniProt P11444, V22A); assay: CD-based competitive inhibition of MR variant V22A; format: biochemical
[20] = reversible competitive inhibitor of MR

Chain of V29F MR (P11444 whole entry V29F): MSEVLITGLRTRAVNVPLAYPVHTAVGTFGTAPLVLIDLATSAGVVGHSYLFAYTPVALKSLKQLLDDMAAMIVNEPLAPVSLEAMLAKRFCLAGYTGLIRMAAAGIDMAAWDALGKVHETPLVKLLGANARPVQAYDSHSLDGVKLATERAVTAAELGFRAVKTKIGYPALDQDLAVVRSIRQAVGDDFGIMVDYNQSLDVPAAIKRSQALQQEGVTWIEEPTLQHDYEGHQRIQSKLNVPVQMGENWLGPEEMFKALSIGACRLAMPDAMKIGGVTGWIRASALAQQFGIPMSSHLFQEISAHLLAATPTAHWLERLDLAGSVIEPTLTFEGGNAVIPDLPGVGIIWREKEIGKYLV
Chain of Y54F MR (P11444 whole entry Y54F): as the sequence (P11444 whole entry V29F) above, with F29V, Y54F counted along it
Chain of A25V MR (P11444 whole entry A25V): as the sequence (P11444 whole entry V29F) above, with A25V, F29V counted along it
Chain of V26F MR (P11444 whole entry V26F): as the sequence (P11444 whole entry V29F) above, with V26F, F29V counted along it
Chain of Y54L MR (P11444 whole entry Y54L): as the sequence (P11444 whole entry V29F) above, with F29V, Y54L counted along it
Chain of V29A MR (P11444 whole entry V29A): as the sequence (P11444 whole entry V29F) above, with F29A counted along it
Chain of V22F MR (P11444 whole entry V22F): as the sequence (P11444 whole entry V29F) above, with V22F, F29V counted along it
Chain of V26A MR (P11444 whole entry V26A): as the sequence (P11444 whole entry V29F) above, with V26A, F29V counted along it
Chain of V22I MR (P11444 whole entry V22I): as the sequence (P11444 whole entry V29F) above, with V22I, F29V counted along it
Chain of V26L MR (P11444 whole entry V26L): as the sequence (P11444 whole entry V29F) above, with V26L, F29V counted along it
Chain of T24S MR (P11444 whole entry T24S): as the sequence (P11444 whole entry V29F) above, with T24S, F29V counted along it
Chain of V22A MR (P11444 whole entry V22A): as the sequence (P11444 whole entry V29F) above, with V22A, F29V counted along it
Chain of V26A/V29L MR (P11444 whole entry V26A/V29L): as the sequence (P11444 whole entry V29F) above, with V26A, F29L counted along it

O=C(NO)c1ccccc1 [benzohydroxamate]
Ki [1]: 63 ± 10 µM
Ki [2]: 216 ± 6 µM
Ki [3]: 611 ± 12.2 µM
Ki [4]: 69.3 ± 2.2 µM
Ki [5, 20]: 9.3 µM
Ki [6]: 25.7 ± 1.9 µM
Ki [7]: 760 ± 31 µM
Ki [8]: 462 ± 31.7 µM
Ki [9]: 79.2 ± 3.6 µM
Ki [10]: 209 ± 9.9 µM
Ki [11]: 640 ± 190 µM
Ki [12]: 229 ± 86.6 µM
Ki [13]: 2900 ± 700 µM
Ki [14]: 179 ± 23.3 µM
Ki [15]: 40.1 ± 0.2 µM
Ki [16]: 13.1 ± 1.1 µM
Ki [17]: 29.2 ± 5.2 µM
Ki [18]: 440 ± 26.9 µM
Ki [19]: 1080 ± 460 µM

O=NN(O)c1ccccc1 [cupferron]
Ki [5, 20]: 2.7 µM

O=CN(O)c1ccccc1 [N-hydroxyformanilide]
Ki [5, 20]: 2.8 µM

C[C@@](O)(C(=O)O)c1ccccc1 [(S)-atrolactate]
Ki ([5]; ground state analogue, MR): 150 µM

CC(=O)NO [acetohydroxamate]
Ki ([5]; MR): 27000 µM

O=P(O)(O)C(O)c1ccccc1 (stereo not drawn) [α-hydroxybenzylphosphonate]
Ki [5, 20]: 4.7 µM
